The source of these data is patent publication US20120070411A1, “SUBSTITUTED NUCLEOTIDE ANALOGS” (Alios BioPharma, Inc., priority 2010, published 2012).

pEC50: −log10 of the molar value.

One test has as its system Huh-7 cells containing the self-replicating, subgenomic HCV replicon. Put plainly: HCV replicon assay (luciferase reporter, 72 h). In kind it is cell-based. Conditions: Hepatitis C virus, Huh-7, 72 h, read-out: HCV Replicon Activity (EC50). Here is the method: Huh-7 cells containing the self-replicating, subgenomic HCV replicon with a stable luciferase (LUC) reporter were cultured in Dulbecco's modified Eagle's medium (DMEM) containing 2 mM L-glutamine and supplemented with 10% heat-inactivated fetal bovine serum (FBS), 1% penicillin-streptomyocin, 1% nonessential amino acids, and 0.5 mg/ml G418.
On the first day, 5,000 HCV replicon cells were plated per well in a 96-well plate. On the following day, test compounds were solubilized in 100% DMSO to 100× the desired final testing concentration. Each compound was then serially diluted (1:3) up to 9 different concentrations. Compounds in 100% DMSO are reduced to 10% DMSO by diluting 1:10 in cell culture media. The compounds were diluted to 10% DMSO with cell culture media, which were used to dose the HCV replicon cells in 96-well format. The final DMSO concentration was 1%. The HCV replicon cells were incubated at 37° C. for 72 hours. At 72 hours, cells were processed when the cells are still subconfluent. Compounds that reduce the LUC signal are determined by Bright-Glo Luciferase Assay (Promega, Madison, Wis.). % Inhibition was determined for each compound concentration in relation to the control cells (untreated HCV replicon) to calculate the EC50.
(A replicon is a self-replicating genome or part of one, used to study replication in cells.)
On to `CC(C)OC(=O)[C@H](C)NP(=O)(Oc1cccc2ccccc12)O[C@@H](C)[C@H]1O[C@@H](n2cnc3c(N)ncnc32)[C@H](O)[C@@H]1O` (stereo partly drawn) [A20, 5′(S)—C-methyladenosine 5′-[1-naphthyl(isopropoxy-L-alaninyl)]phosphate], for which the pEC50 was above 6.00. Regarding `C[C@H](NP(=O)(Oc1cccc2ccccc12)O[C@@H](C)[C@H]1O[C@@H](n2cnc3c(N)ncnc32)[C@H](O)[C@@H]1O)C(=O)OCc1ccccc1` (stereo partly drawn) [A21, 5′(S)—C-methyladenosine 5′-[1-naphthyl(benzyloxy-L-alaninyl)]phosphate], the pEC50 is above 6.00. In the case of `CCC(=O)O[C@H]1[C@@H](OC(=O)CC)[C@H](n2cnc3c(N)ncnc32)O[C@@H]1[C@H](C)OP(=O)(N[C@@H](C)C(=O)OC(C)C)Oc1cccc2ccccc12` (stereo partly drawn) [A22, 2′,3′-O-dipropionyl-5′-(S)—C-methyladenosine 5′-[1-naphthyl(isopropoxy-L-alaninyl)]phosphate], the negative-log EC50 (pEC50) is above 6.00. On to `CC(C)OC(=O)[C@H](C)NP(=O)(Oc1cccc2ccccc12)O[C@@H](C)[C@H]1O[C@@H](n2cnc3c(N)ncnc32)[C@@H]2OC(=O)O[C@@H]21` (stereo partly drawn) [A23, 2′,3′-O-carbonyl-5(S)—C-methyladenosine 5′-[1-naphthyl(isopropoxy-L-alaninyl)]phosphate], for which the pEC50 is above 6.00. In the case of `CC[C@H](OP(=O)(N[C@@H](C)C(=O)OC(C)C)Oc1ccccc1)[C@H]1O[C@@H](n2cnc3c(N)ncnc32)[C@H](O)[C@@H]1O` (stereo partly drawn) [A24, 5′(S)—C-ethyladenosine 5′-[phenyl(isopropoxy-L-alaninyl)]phosphate], the pEC50 is above 4.00. In the case of `CC[C@@H](OP(=O)(N[C@@H](C)C(=O)OC(C)C)Oc1ccccc1)[C@H]1O[C@@H](n2cnc3c(N)ncnc32)[C@H](O)[C@@H]1O` (stereo partly drawn) [A25, 5′(R)—C-ethyladenosine 5′-[phenyl(isopropoxy-L-alaninyl)]phosphate], the pEC50 was above 3.00. On to `CC(C)OC(=O)[C@H](C)NP(=O)(Oc1ccccc1)O[C@H]([C@H]1O[C@@H](n2cnc3c(N)ncnc32)[C@H](O)[C@@H]1O)C(F)(F)F` (stereo partly drawn) [A26, 5′(S)—C-trifluoromethyladenosine 5′-[phenyl(isopropoxy-L-alaninyl)]phosphate], for which the pEC50 is above 4.00.

Consider `CC(C)OC(=O)[C@H](C)NP(=O)(Oc1ccccc1)O[C@@H]([C@H]1O[C@@H](n2cnc3c(N)ncnc32)[C@H](O)[C@@H]1O)C(F)(F)F` (stereo partly drawn) [A27, 5′(R)—C-trifluoromethyladenosine 5′-[phenyl(isopropoxy-L-alaninyl)]phosphate], for which the pEC50 was above 4.52. As for `CC(NP(=O)(Oc1ccccc1Cl)OC(C)C1OC(n2cnc3c(N)ncnc32)[C@H](O)[C@@H]1O)C(=O)OC1CCCCC1` (stereo partly drawn) [A28, 5′(S)—C-methyladenosine 5′-[2-chlorophenyl(cyclohexoxy-L-alaninyl)]phosphate], the pEC50 was above 6.00. On to `C[C@H](NP(=O)(Oc1ccc(F)c(Cl)c1)O[C@@H](C)[C@H]1O[C@@H](n2cnc3c(N)ncnc32)[C@H](O)[C@@H]1O)C(=O)OC1CCCCC1` (stereo partly drawn) [A29], for which the pEC50 was above 6.00. Still for that read-out and setting: with `Cc1ccc(OP(=O)(N[C@@H](C)C(=O)OC2CCCCC2)O[C@@H](C)[C@H]2O[C@@H](n3cnc4c(N)ncnc43)[C@H](O)[C@@H]2O)cc1` (stereo partly drawn) [A30] the figure was above 6.00; with `C[C@H](NP(=O)(Oc1ccc(Cl)cc1)O[C@@H](C)[C@H]1O[C@@H](n2cnc3c(N)ncnc32)[C@H](O)[C@@H]1O)C(=O)OC1CCCCC1` (stereo partly drawn) [A32], above 6.00. The same measure, in the same setting: with `COc1ccc(OP(=O)(N[C@@H](C)C(=O)OC2CCCCC2)O[C@@H](C)[C@H]2O[C@@H](n3cnc4c(N)ncnc43)[C@H](O)[C@@H]2O)cc1` (stereo partly drawn) [A33] the figure was above 6.00; with `CC[C@H](NP(=O)(Oc1ccccc1)O[C@@H](C)[C@H]1O[C@@H](n2cnc3c(N)ncnc32)[C@H](O)[C@@H]1O)C(=O)OC1CCCCC1` (stereo partly drawn) [A34], above 6.00; with `C[C@H](NP(=O)(Oc1cccnc1)O[C@@H](C)[C@H]1O[C@@H](n2cnc3c(N)ncnc32)[C@H](O)[C@@H]1O)C(=O)OC1CCCCC1` (stereo partly drawn) [A36], above 4.52. With `Cc1ccccc1OP(=O)(N[C@@H](C)C(=O)OC1CCCCC1)O[C@@H](C)[C@H]1O[C@@H](n2cnc3c(N)ncnc32)[C@H](O)[C@@H]1O` (stereo partly drawn) [A37], the pEC50 is above 6.00. With `CCC[C@H](NP(=O)(Oc1ccccc1)O[C@@H](C)[C@H]1O[C@@H](n2cnc3c(N)ncnc32)[C@H](O)[C@@H]1O)C(=O)OC1CCCCC1` (stereo partly drawn) [A38], the pEC50 is above 6.00. Regarding `CC(C)[C@H](NP(=O)(Oc1ccccc1)O[C@@H](C)[C@H]1O[C@@H](n2cnc3c(N)ncnc32)[C@H](O)[C@@H]1O)C(=O)OC1CCCCC1` (stereo partly drawn) [A39], the pEC50 is above 6.00. The same measure, in the same setting: next, `CC(C)C[C@H](NP(=O)(Oc1ccccc1)O[C@@H](C)[C@H]1O[C@@H](n2cnc3c(N)ncnc32)[C@H](O)[C@@H]1O)C(=O)OC1CCCCC1` (stereo partly drawn) [A40]: above 6.00.

`CSCC[C@H](NP(=O)(Oc1ccccc1)O[C@@H](C)[C@H]1O[C@@H](n2cnc3c(N)ncnc32)[C@H](O)[C@@H]1O)C(=O)OC1CCCCC1` (stereo partly drawn) [A41]: the pEC50 is above 6.00. `C[C@H](OP(=O)(N[C@@H](Cc1ccccc1)C(=O)OC1CCCCC1)Oc1ccccc1)[C@H]1O[C@@H](n2cnc3c(N)ncnc32)[C@H](O)[C@@H]1O` (stereo partly drawn) [A42]: the pEC50 was above 4.52.

`C[C@H](OP(=O)(NCC(=O)OC1CCCCC1)Oc1ccccc1)[C@H]1O[C@@H](n2cnc3c(N)ncnc32)[C@H](O)[C@@H]1O` (stereo partly drawn) [A43]: the negative-log EC50 (pEC50) is above 6.00.

In the case of `CC(C)OC(=O)[C@H](C)NP(=O)(Oc1cccc2ccccc12)O[C@@H](C)[C@H]1O[C@@H](n2ccc(N)nc2=O)[C@H](O)[C@@H]1O` (stereo partly drawn) [C2, 5′(S)—C-methylcytidine-[naphthyl(isopropoxy-L-alaninyl)]phosphate], the pEC50 was above 4.00.

`COC(=O)[C@H](C)NP(=O)(Oc1ccccc1)O[C@@H](C)[C@H]1O[C@@H](n2ccc(N)nc2=O)[C@H](O)[C@@H]1O` (stereo partly drawn) [C6, 5′(S)—C-Methylcytidine 5′-[phenyl(methoxy-L-alaninyl)]phosphate]: the pEC50 is above 4.00. With `CC(C)OC(=O)[C@H](C)NP(=O)(Oc1ccccc1)O[C@@H](C)[C@H]1O[C@@H](n2ccc(N)nc2=O)[C@H](O)[C@@H]1O` (stereo partly drawn) [C8, 5′(S)—C-methylcytidine 5′-[phenyl(isopropoxy-L-alaninyl)]phosphate], the pEC50 is above 4.00. Still for that read-out and setting: next, `COC(=O)[C@H](C)NP(=O)(Oc1ccccc1)O[C@H](C)[C@H]1O[C@@H](n2ccc(=O)[nH]c2=O)[C@@H](O)[C@@H]1O` (stereo partly drawn) [D1, 5′(R)—C-methylarabinouridine 5′-[phenyl(methoxy-L-alaninyl)]phosphate]: above 3.00. As for `COC(=O)[C@H](C)NP(=O)(Oc1ccccc1)O[C@@H](C)[C@H]1O[C@@H](n2ccc(=O)[nH]c2=O)[C@@H](O)[C@@H]1O` (stereo partly drawn) [D2, 5′ (S)—C-methylarabinouridine 5′-[phenyl(methoxy-L-alaninyl)]phosphate], the pEC50 was above 3.00.

As to `CC(C)OC(=O)[C@H](C)NP(=O)(Oc1ccccc1)O[C@@H](C)[C@H]1O[C@@H](n2cnc3c(N)nc(N)nc32)[C@H](O)[C@@H]1O` (stereo partly drawn) [E1, 1-(2,6-diaminopurin-9-yl)-5(S)—C-methyl-β-D-ribofuranose 5-[phenyl(isopropoxy-L-alaninyl)]phosphate], the pEC50 is above 4.52.

For `COC(=O)[C@@H](C)NP(=O)(Oc1ccccc1)O[C@@H](C)[C@H]1O[C@@H](n2cnc3c(N)ncnc32)[C@](C)(O)[C@@H]1O` (stereo partly drawn) [drawing 355], the pEC50 was 3.70 to 4.52.

The same test, now with this note: read-out: HCV Replicon Activity (EC50); Table 9; Huh-7 HCV replicon cells, luciferase, 72 hours.
In the case of `COC(=O)[C@@H](C)NP(=O)(Oc1ccccc1)O[C@@H](C)[C@H]1O[C@@H](n2cnc3c(N)ncnc32)[C@](C)(O)[C@@H]1O` (stereo partly drawn) [drawing 364], the pEC50 is 3.70 to 4.52.

As a reminder, the pEC50 is the EC50 on a negative log10 scale, so that one unit is a factor of ten.
